Read-outs that look alike come from different tables or passages of the source.
Assays:
ErbB2 WT = ErbB2 WT (Homo sapiens (Human), UniProt P04626); experiment: ErbB enzyme assay (CisBio HTRF KinEASE-TK), Assay 2; assay type: biochemical
Method: Compound potencies were determined using CisBio's HTRF Kinease-TK assay technology. The kinases were incubated with 250 nM TK-substrate biotin (CisBio, part of cat #62TK0PEC) at 1 mM ATP along with test compounds in a buffer consisting of 25 mM HEPES, pH 7.4, 10 mM MgCl2, 0.01% Triton X-100, and 2% DMSO in a volume of 8 μL. […] After 30-minute incubation at 22° C., the reaction was quenched by adding 8 μL of quench solution containing 62.5 nM Sa-XL665 and 0.25× TK-Ab-Cryptate in HTRF detection buffer (all from CisBio, part of cat #62TK0PEC). After a 1-hour incubation at 22° C., the extent of reaction was determined using a PerkinElmer EnVision multimode plate reader via HTRF dual wavelength detection, and the percent of control (POC) was calculated using a ratiometric emission factor. One hundred POC was determined using DMSO only samples (no compound present), and 0 POC was determined using pre-quenched control reactions.
(§1) Enzyme lots and concentration used are in Table 2.

[1] = target: ErbB2 insYVMA (HER2-YVMA, SEQ ID NO: 2) (Homo sapiens, UniProt P04626, INS775YVMA/P1170A); experiment: biochemical; conditions: ErbB2 insYVMA enzyme assay
EGFR = EGFR (Homo sapiens (Human), UniProt P00533); experiment: ErbB enzyme assay (CisBio HTRF KinEASE-TK), Assay 3; assay type: biochemical
Method: Compound potencies were determined using CisBio's HTRF Kinease-TK assay technology. The kinases were incubated with 250 nM TK-substrate biotin (CisBio, part of cat #62TK0PEC) at 1 mM ATP along with test compounds in a buffer consisting of 25 mM HEPES, pH 7.4, 10 mM MgCl2, 0.01% Triton X-100, and 2% DMSO in a volume of 8 μL. Compounds were prepared as a three-fold serial dilution in DMSO and added to the assay to give the appropriate final concentration. After 30-minute incubation at 22° C., the reaction was quenched by adding 8 μL of quench solution containing 62.5 nM Sa-XL665 and 0.25× TK-Ab-Cryptate in HTRF detection buffer (all from CisBio, part of cat #62TK0PEC). After a 1-hour incubation at 22° C., the extent of reaction was determined using a PerkinElmer EnVision multimode plate reader via HTRF dual wavelength detection, and the percent of control (POC) was calculated using a ratiometric emission factor. One hundred POC was determined using DMSO only samples (no compound present), and 0 POC was determined using pre-quenched control reactions. A 4-parameter logistic curve was fit to the POC values as a function of the concentration of compound, and the IC50 value was the point where the best-fit curve crossed 50 POC.
as §1

[2] = target: ErbB2 with Exon 20 YVMA insertion (HER2-YVMA) (Homo sapiens (Human), UniProt P04626, INS775YVMA); experiment: Cellular phosphorylation assay, constitutive ErbB2 phosphorylation (Y1196) in engineered NIH 3T3 cells, Assay 4; assay type: cell-based
Method: Serially diluted compounds were added to the plates for 1 hour at 37° C./5% CO2. EGFR WT cells were stimulated with 100 ng/ml rEGF for an additional 10 minutes at 37° C./5% CO2. After compound incubation, medium was removed from the cells, which were then fixed in 3.7% formaldehyde in PBS at room temperature for 20 minutes. Following a wash with PBS, cells were permeabilized with 100% methanol at room temperature for 10 minutes. Cells were then washed with PBS/0.05% Tween-20 and blocked with Odyssey blocking buffer (LI-COR Biosciences) for at least 1 hour at room temperature. Antibodies to phosphorylated ErbB2 (Y1196, Cell Signaling #6942) or phosphorylated EGFR (Y1068, Cell Signaling #3777) and GAPDH (Millipore #MAB374) were added to the cells in blocking buffer containing 0.05% azide and incubated overnight at 4° C. After washing with PBS/0.05° i° Tween-20, the cells were incubated with fluorescently labeled secondary anti-rabbit antibody (LiCOR, IRDye 800CW #926-32211) and anti-mouse antibody (Molecular Probes, Alexa Fluor 680 #A21058) for 1 hour at room temperature in the dark. Cells were then washed and analyzed for fluorescence at both wavelengths using the Odyssey Infrared Imaging System (LI-COR Biosciences). Phosphorylated ErbB2 and EGFR signal was normalized to GAPDH signal to generate curves and calculate IC50 values.

ErbB2 insYVMA (HER2-YVMA, SEQ ID NO: 2), sequence (P04626 with tags, fused parts or gaps INS775YVMA/P1170A limits assumed): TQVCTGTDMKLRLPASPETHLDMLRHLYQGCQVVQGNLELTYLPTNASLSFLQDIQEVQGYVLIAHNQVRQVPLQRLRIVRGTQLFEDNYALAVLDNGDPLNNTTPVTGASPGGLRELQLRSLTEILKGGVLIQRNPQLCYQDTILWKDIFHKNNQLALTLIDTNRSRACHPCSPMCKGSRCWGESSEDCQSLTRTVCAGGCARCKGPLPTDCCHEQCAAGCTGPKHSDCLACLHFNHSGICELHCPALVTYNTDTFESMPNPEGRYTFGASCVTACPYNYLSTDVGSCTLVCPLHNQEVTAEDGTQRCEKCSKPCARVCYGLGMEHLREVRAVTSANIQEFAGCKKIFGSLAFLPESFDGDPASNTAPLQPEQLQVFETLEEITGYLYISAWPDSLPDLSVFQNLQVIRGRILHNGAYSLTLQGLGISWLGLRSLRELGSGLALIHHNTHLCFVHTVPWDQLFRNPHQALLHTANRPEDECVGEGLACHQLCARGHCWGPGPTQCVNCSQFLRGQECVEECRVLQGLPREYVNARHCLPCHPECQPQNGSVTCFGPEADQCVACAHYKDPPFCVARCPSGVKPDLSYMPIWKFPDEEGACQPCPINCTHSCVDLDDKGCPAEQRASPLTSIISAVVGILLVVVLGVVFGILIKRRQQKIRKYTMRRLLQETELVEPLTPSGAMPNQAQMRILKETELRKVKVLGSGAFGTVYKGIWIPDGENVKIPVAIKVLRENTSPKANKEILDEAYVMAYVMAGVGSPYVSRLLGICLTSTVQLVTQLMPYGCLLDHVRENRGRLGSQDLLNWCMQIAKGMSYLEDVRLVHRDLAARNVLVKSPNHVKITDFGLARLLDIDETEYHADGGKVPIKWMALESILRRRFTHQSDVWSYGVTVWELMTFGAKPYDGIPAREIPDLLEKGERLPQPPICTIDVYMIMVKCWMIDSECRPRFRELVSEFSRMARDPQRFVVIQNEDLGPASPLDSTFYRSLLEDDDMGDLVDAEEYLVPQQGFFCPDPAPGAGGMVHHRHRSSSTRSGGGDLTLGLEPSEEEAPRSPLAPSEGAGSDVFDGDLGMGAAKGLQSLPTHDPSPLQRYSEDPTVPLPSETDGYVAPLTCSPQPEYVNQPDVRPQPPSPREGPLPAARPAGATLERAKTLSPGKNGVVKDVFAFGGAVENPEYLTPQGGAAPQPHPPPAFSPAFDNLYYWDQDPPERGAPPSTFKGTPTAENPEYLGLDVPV
ErbB2 WT, sequence (P04626 23-1255): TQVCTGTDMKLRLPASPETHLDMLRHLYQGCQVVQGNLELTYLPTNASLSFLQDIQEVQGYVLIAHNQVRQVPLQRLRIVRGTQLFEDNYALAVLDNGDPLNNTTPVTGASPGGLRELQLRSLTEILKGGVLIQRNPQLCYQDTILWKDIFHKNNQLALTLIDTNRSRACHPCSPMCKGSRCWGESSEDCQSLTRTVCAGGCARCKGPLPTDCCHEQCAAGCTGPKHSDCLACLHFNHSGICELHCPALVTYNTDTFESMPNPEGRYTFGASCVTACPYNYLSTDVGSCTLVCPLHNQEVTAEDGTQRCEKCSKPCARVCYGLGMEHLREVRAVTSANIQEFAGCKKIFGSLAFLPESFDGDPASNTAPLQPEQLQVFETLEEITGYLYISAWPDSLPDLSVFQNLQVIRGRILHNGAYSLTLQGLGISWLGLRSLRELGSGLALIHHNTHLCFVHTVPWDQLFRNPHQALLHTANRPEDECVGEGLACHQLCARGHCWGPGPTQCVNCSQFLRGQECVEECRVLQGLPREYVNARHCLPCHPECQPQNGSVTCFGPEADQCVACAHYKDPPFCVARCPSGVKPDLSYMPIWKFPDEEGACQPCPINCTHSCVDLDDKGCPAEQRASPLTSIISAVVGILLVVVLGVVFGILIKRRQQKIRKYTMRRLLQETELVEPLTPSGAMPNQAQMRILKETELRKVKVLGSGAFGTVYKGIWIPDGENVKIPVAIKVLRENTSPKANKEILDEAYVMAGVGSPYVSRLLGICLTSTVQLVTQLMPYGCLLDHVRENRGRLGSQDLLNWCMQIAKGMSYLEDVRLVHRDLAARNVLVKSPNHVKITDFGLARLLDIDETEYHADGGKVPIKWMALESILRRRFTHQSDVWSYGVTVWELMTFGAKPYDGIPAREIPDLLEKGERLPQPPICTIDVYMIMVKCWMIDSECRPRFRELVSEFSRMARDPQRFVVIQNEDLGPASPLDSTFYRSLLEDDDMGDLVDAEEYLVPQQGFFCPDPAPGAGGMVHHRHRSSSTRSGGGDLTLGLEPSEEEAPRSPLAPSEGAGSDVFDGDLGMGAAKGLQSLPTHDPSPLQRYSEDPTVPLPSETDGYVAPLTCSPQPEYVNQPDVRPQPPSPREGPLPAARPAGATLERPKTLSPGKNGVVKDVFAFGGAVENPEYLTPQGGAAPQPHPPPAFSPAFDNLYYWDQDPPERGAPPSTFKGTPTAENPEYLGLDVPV
EGFR, sequence (P00533 25-1210): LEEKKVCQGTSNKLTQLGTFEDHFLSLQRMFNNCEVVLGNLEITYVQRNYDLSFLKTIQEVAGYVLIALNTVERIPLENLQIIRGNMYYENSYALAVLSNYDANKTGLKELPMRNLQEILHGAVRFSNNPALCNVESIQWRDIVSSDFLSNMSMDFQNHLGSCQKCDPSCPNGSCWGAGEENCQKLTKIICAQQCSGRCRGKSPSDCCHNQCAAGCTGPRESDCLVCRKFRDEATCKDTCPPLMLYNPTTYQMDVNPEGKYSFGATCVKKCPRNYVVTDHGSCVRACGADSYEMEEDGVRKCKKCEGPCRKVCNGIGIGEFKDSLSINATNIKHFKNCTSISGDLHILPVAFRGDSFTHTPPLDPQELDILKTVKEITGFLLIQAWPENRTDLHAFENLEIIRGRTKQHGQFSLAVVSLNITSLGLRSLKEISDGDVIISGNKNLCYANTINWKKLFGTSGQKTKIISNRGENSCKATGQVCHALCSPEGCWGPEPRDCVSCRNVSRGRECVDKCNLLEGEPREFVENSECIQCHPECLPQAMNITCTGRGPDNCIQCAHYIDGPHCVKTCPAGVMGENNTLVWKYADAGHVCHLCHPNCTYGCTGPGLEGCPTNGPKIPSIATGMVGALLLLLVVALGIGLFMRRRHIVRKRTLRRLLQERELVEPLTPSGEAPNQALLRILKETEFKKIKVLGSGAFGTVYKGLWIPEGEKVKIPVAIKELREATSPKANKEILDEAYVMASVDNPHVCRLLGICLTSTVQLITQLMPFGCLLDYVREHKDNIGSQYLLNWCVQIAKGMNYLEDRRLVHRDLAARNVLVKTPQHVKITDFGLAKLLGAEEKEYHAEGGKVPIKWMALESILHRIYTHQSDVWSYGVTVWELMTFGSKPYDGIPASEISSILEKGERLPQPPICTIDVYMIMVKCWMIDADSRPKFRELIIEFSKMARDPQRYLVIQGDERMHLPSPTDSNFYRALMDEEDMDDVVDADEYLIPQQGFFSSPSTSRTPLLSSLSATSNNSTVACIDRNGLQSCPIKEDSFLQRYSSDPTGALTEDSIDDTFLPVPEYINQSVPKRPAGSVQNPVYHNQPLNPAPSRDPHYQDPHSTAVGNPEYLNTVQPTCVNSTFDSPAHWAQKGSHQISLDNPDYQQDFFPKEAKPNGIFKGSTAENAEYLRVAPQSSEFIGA
ErbB2 with Exon 20 YVMA insertion (HER2-YVMA), sequence (P04626 other isoform, or with tags, fused parts or gaps ins YVMA behind 775): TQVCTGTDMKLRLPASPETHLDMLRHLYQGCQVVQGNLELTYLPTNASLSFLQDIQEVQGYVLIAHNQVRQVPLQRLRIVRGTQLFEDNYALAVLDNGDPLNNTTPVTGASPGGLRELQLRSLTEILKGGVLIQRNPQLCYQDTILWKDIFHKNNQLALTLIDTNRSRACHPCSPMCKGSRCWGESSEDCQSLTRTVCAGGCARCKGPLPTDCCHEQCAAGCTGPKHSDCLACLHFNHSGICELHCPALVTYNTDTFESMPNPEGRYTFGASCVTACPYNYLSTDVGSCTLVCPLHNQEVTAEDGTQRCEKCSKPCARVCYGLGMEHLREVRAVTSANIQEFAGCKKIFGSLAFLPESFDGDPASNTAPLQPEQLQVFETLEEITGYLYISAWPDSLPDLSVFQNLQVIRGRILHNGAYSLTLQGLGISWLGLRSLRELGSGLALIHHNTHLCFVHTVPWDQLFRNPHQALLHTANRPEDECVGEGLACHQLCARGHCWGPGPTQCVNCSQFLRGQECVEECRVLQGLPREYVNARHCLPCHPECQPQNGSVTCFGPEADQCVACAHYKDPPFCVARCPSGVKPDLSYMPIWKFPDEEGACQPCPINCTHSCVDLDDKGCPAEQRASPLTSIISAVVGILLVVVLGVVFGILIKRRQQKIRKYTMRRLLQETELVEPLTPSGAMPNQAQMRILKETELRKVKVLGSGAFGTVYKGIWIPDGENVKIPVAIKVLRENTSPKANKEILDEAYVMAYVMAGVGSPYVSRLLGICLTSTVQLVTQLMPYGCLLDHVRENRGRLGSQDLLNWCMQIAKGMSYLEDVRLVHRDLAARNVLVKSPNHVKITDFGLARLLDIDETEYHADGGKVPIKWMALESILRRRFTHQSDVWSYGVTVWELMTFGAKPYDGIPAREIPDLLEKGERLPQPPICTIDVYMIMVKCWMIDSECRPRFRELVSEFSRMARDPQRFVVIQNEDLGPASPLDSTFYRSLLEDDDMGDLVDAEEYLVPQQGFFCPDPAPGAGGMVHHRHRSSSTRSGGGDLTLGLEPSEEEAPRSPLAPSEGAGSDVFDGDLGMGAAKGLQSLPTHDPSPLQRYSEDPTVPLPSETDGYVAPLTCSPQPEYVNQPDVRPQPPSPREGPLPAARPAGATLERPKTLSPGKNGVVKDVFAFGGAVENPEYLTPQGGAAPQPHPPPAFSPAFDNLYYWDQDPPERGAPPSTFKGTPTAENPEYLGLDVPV

Structure (SMILES)	IC50 (ErbB2 WT)	IC50 ([1]; Assay 1 IC50 (nM))	IC50 (EGFR)	IC50 [2]	IC50 ([1]; read-out: Assay 1 IC50)
CCn1cnc2cc(Oc3ccc(Nc4ncnc5cnc(N6CCOCC6)nc45)cc3C)ccc21 [Example 75, N-(4-((1-ethyl-1H-benzo[d]imidazol-5-yl)oxy)-3-methylphenyl)-6-morpholinopyrimido[5,4-d]pyrimidin-4-amine 2,2,2-trifluoroacetate]	141 nM	51.8 nM	≥ 10000 nM	23.9 nM	–
COCCOc1ncc2ncnc(Nc3ccc(Oc4ccc5c(c4)ncn5C)c(C)c3)c2n1 [Example 76, 6-(2-methoxyethoxy)-N-(3-methyl-4-((1-methyl-1H-benzo[d]imidazol-5-yl)oxy)phenyl)pyrimido[5,4-d]pyrimidin-4-amine 2,2,2-trifluoroacetate]	2340 nM	337 nM	≥ 10000 nM	1300 nM	–
Cn1cnc2cc(Oc3ccc(Nc4ncnc5cnc(N6CCOCC6)nc45)cc3Cl)ccc21 [Example 81, N-(3-chloro-4-((1-methyl-1H-benzo[d]imidazol-5-yl)oxy)phenyl)-6-morpholinopyrimido[5,4-d]pyrimidin-4-amine 2,2,2-trifluoroacetate]	847 nM	153 nM	≥ 10000 nM	77.1 nM	–
CC(=O)N1C2CC1CN(c1ncc3ncnc(Nc4ccc(Oc5ccc6c(c5)ncn6C)c(C)c4)c3n1)C2 [Example 89, 1-(3-(8-((3-methyl-4-((1-methyl-1H-benzo[d]imidazol-5-yl)oxy)phenyl)amino)pyrimido[5,4-d]pyrimidin-2-yl)-3,6-diazabicyclo[3.1.1]heptan-6-yl)ethan-1-one]	285 nM	–	≥ 10000 nM	187 nM	68.1 nM
Cc1cc(Nc2ncnc3cnc(OCC(F)F)nc23)ccc1Oc1ccc2c(c1)ncn2C [Example 177, 6-(2,2-difluoroethoxy)-N-(3-methyl-4-((1-methyl-1H-benzo[d]imidazol-5-yl)oxy)phenyl)pyrimido[5,4-d]pyrimidin-4-amine]	150 nM	–	≥ 10000 nM	109 nM	53.2 nM
CCCOc1ncc2ncnc(Nc3ccc(Oc4ccc5c(c4)ncn5C)c(C)c3)c2n1 [Example 221]	334 nM	–	≥ 10000 nM	548 nM	122 nM
Cc1cc(Nc2ncnc3cnc(N4CC5CC5(C)C4)nc23)ccc1Oc1ccc2c(c1)ncn2C (centres unmarked) [Example 225]	218 nM	–	≥ 10000 nM	85.4 nM	149 nM
CO[C@@H]1CCCN(c2ncc3ncnc(Nc4ccc(Oc5ccc6c(c5)ncn6C)c(C)c4)c3n2)C1 [Example 227]	66.9 nM	–	≥ 10000 nM	53.8 nM	47.4 nM
Cc1cc(Nc2ncnc3cnc(N4CCC[C@@H]4C(F)(F)F)nc23)ccc1Oc1ccc2c(c1)ncn2C [Example 229]	376 nM	–	≥ 10000 nM	165 nM	171 nM
Cc1cc(Nc2ncnc3cnc(N4CCC(F)(F)CC4)nc23)ccc1Oc1ccc2c(c1)ncn2C [Example 236]	352 nM	–	≥ 10000 nM	89.9 nM	149 nM
COC1CC2(C1)CN(c1ncc3ncnc(Nc4ccc(Oc5ccc6c(c5)ncn6C)c(C)c4)c3n1)C2 [Example 237]	70.2 nM	–	≥ 10000 nM	71.6 nM	32 nM
Cc1cc(Nc2ncnc3cnc(N4CCC4C(F)(F)F)nc23)ccc1Oc1ccc2c(c1)ncn2C (centres unmarked) [Example 238]	227 nM	–	≥ 10000 nM	163 nM	99.3 nM
Cc1cc(Nc2ncnc3cnc(N4CCCCC4)nc23)ccc1Oc1ccc2c(c1)ncn2C [Example 242]	130 nM	–	≥ 10000 nM	76.3 nM	111 nM
Cc1cc(Nc2ncnc3cnc(N4CC(OC(F)F)C4)nc23)ccc1Oc1ccc2c(c1)ncn2C [Example 244]	107 nM	–	≥ 10000 nM	92.2 nM	41.9 nM
Cc1cc(Nc2ncnc3cnc(N4CC(COC(F)F)C4)nc23)ccc1Oc1ccc2c(c1)ncn2C [Example 245]	142 nM	–	≥ 10000 nM	109 nM	50.4 nM
Cc1cc(Nc2ncnc3cnc(N4CC(C)(O)C4)nc23)ccc1Oc1ccc2c(c1)ncn2C [Example 246]	70.8 nM	–	≥ 10000 nM	103 nM	28.2 nM
CO[C@H]1CCCN(c2ncc3ncnc(Nc4ccc(Oc5ccc6c(c5)ncn6C)c(C)c4)c3n2)C1 [Example 248]	122 nM	–	≥ 10000 nM	65.7 nM	57.4 nM
Cc1cc(Nc2ncnc3cnc(N4CC[C@H](C)C4=O)nc23)ccc1Oc1ccc2c(c1)ncn2C [Example 250]	67.6 nM	–	≥ 10000 nM	54.6 nM	46.3 nM
Cc1cc(Nc2ncnc3cnc(N4C5COCC4C5)nc23)ccc1Oc1ccc2c(c1)ncn2C [Example 255]	434 nM	–	≥ 10000 nM	160 nM	113 nM
Cc1cc(Nc2ncnc3cnc(N4CCOC[C@@H]4C)nc23)ccc1Oc1ccc2c(c1)ncn2C [Example 258]	177 nM	–	≥ 10000 nM	51.4 nM	88.3 nM
Cc1cc(Nc2ncnc3cnc(O[C@@H]4CNC[C@@H]4F)nc23)ccc1Oc1ccc2c(c1)ncn2C [Example 283]	301 nM	–	≥ 10000 nM	261 nM	39.5 nM
Cc1cc(Nc2ncnc3cnc(N4CC[C@H]4C(F)F)nc23)ccc1Oc1ccc2c(c1)ncn2C [Example 388]	89.4 nM	–	≥ 10000 nM	52.2 nM	62.1 nM
Cc1cc(Nc2ncnc3cnc(N4CC[C@@H]4C(C)(C)O)nc23)ccc1Oc1ccc2c(c1)ncn2C [Example 397]	144 nM	–	≥ 10000 nM	115 nM	20.3 nM
Cc1cc(Nc2ncnc3cnc(N4CC[C@H]4C(C)(C)O)nc23)ccc1Oc1ccc2c(c1)ncn2C [Example 407]	117 nM	–	≥ 10000 nM	84.1 nM	31.5 nM
Cc1cc(Nc2ncnc3cnc(N4CCC5(COC5)C4)nc23)ccc1Oc1ccc2c(c1)ncn2C [Example 422]	93.2 nM	–	≥ 10000 nM	96.7 nM	58.4 nM
Cc1cc(Nc2ncnc3cnc(N4CCCCS4(=O)=O)nc23)ccc1Oc1ccc2c(c1)ncn2C [Example 437]	146 nM	–	≥ 10000 nM	95.8 nM	40.8 nM
Cc1c(Oc2ccc3c(c2)ncn3C)ccc(Nc2ncnc3cnc(N4CC5CC4CO5)nc23)c1F (centres unmarked) [Example 454]	48.1 nM	–	4110 nM	54.7 nM	15.3 nM
Cc1cc(Nc2ncnc3cnc(N4CC[Si](C)(C)CC4)nc23)ccc1Oc1ccc2c(c1)ncn2C [Example 474]	727 nM	254 nM	≥ 10000 nM	559 nM	–
Cc1cc(Nc2ncnc3cnc(OCC(C)(C)O)nc23)ccc1Oc1ccc2c(c1)ncn2C [Example 476]	232 nM	–	≥ 10000 nM	155 nM	39.5 nM
